From patent US9072729B2, “Method for treating fibrosis and cancer with imidazolium and imidazolinium compounds” (Agency for Science, Technology and Research, priority 2008, dated 2015)

Tests used:
[1] = tested on: liver fibrosis induced by bile duct ligation (BDL); assay: Liver fibrosis in mice induced by bile duct ligation (BDL); format: in vivo, mouse; conditions: for liver fibrosis (Sirius Red collagen): drinking water, 4 weeks, DBZIM 10 mg/L, DPIM 1 g/L
Procedure: FIG. 15 Effect of DBZIM and DPIM on liver fibrosis in mice. DBZIM was tested on mice induced by (a) liver toxin thioacetamide (TAA) or by (b) bile duct ligation (BDL). DPIM was also tested on mice induced by TAA (data not shown)) or by (c) bile duct ligation (BDL).
FIG. 16. Representative of images of Sirius red staining in liver sections from different DPIM compound treated group mice. Each treated group had 6-8 mice, except for 500 mg/l treated group, which had only one mouse in the group. Red staining areas represent collagen deposits. (A) sham operated, (B) sham operated+DPIM 1 g/l for 4 weeks, (C) BDL for 4 weeks, (D) BDL 4 weeks+500 mg/l DPIM treatment, (E) BDL 4 weeks+750 mg/l DPIM treatment, and (F) BDL 4 weeks+1 g/l DPIM treatment.
FIG. 17. Percentage of Sirius red staining areas. Sirius red staining areas from different treatment group mice were quantified with Image J software, at least 6 different areas from left and middle lobes of liver of each mouse were covered. *P<0.05, BDL vs. DPIM treated groups; # P<0.05, 750 mg/l vs. 1 g/l treated groups.
FIG. 18. Liver weights of different treatment groups. Each group consisted of 6-8 mice which were 10-12 weeks old at the start of surgery procedure. *P<0.05, sham operated control group vs: BDL 4 weeks, **P<0.05, DPIM compound treated groups vs; BDL weeks group, # P<0.05, 750 mg/l DPIM treated group vs. 1 g/l DPIM treated group.
FIG. 19. Representative images of H&E staining of liver sections. (A) control group; (B) BDL 4 weeks group; and (C) BDL 4 weeks+DPIM 1 g/l treatment group.
FIG. 20. Quantitative real-time PCR for collagen 1a1 mRNA. DPIM reduced collagen 1a1 mRNA.
For the liver toxin thioacetamide (TAA) model, TAA was given by i.p. injection at 200 mg/kg body weight, 3 times per week, for 12 weeks, to induce hepatic fibrosis in mice. For the bile duct ligation model (BDL), adult mice were anesthetized with Ketamine (150 mg/kg)/Xylazine (10 mg/kg) via i.p. injection. An abdominal incision at the midline is made to expose the common bile conduct, which was then ligated using 5-0 silk suture. In the control animal, the bile duct is exposed, but not ligated. DBZIM or DPIM was provided to the mice in drinking water at concentrations from 1 to 1000 mg/liter. The collagen content in the fibrotic liver was assessed by the Sirius Red staining of the liver tissue sections.
Male FVB/N mice (8-10 weeks old) housed in a specific pathogen-free (SFP) facility on a 12 hour dark-light cycle and with free access to water and diet were used in the study. The animal experiment protocol was approved by the institutional animal care and use committee (IACUC), the Biomedical Research Council (BMRC) of Singapore.
Cholestatic fibrosis was induced by BDL, briefly, mice were anesthetized with intraperitoneal injection of ketamine (150 mg/kg) and xylazine (10 mg/kg), after midline laparotomy, the common bile duct was ligated twice with 5-0 silk suture. The sham operation was performed similarly except that bile duct was not double ligated. The experimental mice were divided into four groups: 1) control only (sham operated, but no BDL); 2) control+DPIM; 3) BDL only; 4) BDL+DPIM. Each group consists of 6-8 mice. DPIM compound for treatment was supplied in the drinking water at three concentrations, 500 mg/l, 750 mg/l, 1 g/l, respectively. The drinking water containing DPIM was changed weekly. It was observed that on average each mouse (normal or operated) drank approximately 3-4 ml plain or DPIM-containing water every day. […] The compound treatment was started on the third day after animals recovered from the BDL procedure. After 4 weeks, livers were removed from mice for fixation 10% formalin, subsequently embedded in paraffin.
For consistency, paraffin-sections prepared from the left and median lobes were stained with Sirius-Red to visualize the collagen content. […]

primary HSCs = assay: Protection of primary HSCs from DMSO cytotoxicity; format: cell-based, Wistar rat; conditions: DBZIM 100 μM, TDBZIM 50 μM
Procedure: FIG. 5. DBZIM and TDBZIM protected primary HSC cells against oxidative stress induced by 0.2% (v/v) of DMSO. (a) Optical images of cells treated with IMSs for 26 and 93 h. Scale bar=60 μm. 0.2% (v/v) of DMSO induced oxidative stress by depleting the total GSH level (b), inducing the GSSG level (c), reducing the GSH/GSSG ratio (d), and inducing GPX (e), CAT (f) and SOD (g) activity levels. The data were presented as mean and SEM, N=6, *^cP<0.005, and *^dP<0.0005; when compared to the untreated sample.
The isolation of primary HSCs from Wistar rat liver was performed primarily following the method provided in a previous report (Weiskirchen et al. 2005). Briefly, the supernatant of cell suspension after hepatocyte removal was washed and re-suspended in 9.5 ml of Gey's balance salt solution (GBSS), and mixed with 8 ml of 28.7% (w/v) Histodenz in GBSS. The gradient was prepared by laying the cell suspension underneath 6 ml of GBSS, and centrifuged in Histodenz gradient at 1400×g for 20 min. The stellate cells were separated into a fuzzy band just above the interface of the Histodenz solution and the aqueous buffer. The stellate cell band was harvested, washed, and 1×10^6 cells/well were seeded in a 6-well culture plate in Dulbecco modified Eagle's medium (DMEM) supplemented with 10% fetal bovine serum (FBS). The viability of the HSCs was >95% as determined by trypan blue exclusion staining, and the purity of the HSCs was >90% as assessed by glial fibrillary acidic protein (GFAP) positive staining in >200 cells counted. Primary HSCs were routinely cultured in DMEM with 10% FBS in a humidified CO2 incubator at 37° C., and split at 1:4 ratio by trypsinization (0.05% trypsin/0.53 mM ethylenediaminetetraacetic acid (EDTA)) when they grew to confluency. The HSC-T6 cell line was kindly provided by Dr. Scott Friedman of Mount Sinai School of Medicine, New York. A stable T6/GFAP-LacZ clonal cell line was established as previously reported (Maubach et al. 2006). HSC-T6 and T6/GFAP-LacZ cells were cultured in the same conditions as the primary HSCs.

Compound	liver weight ([1]; BDL 4 weeks + 750 mg/l (BDL alone 2.74±0.51 g))	Sirius-Red positive areas (percentage of staining areas; BDL alone 8.69) ([1]; BDL 4 weeks + 750 mg/l in drinking water)	proliferative cells around the sinusoidal area (H&E staining) ([1]; BDL 4 weeks + 1 g/l)	liver weight ([1]; BDL 4 weeks + 1 g/l (BDL alone 2.74±0.51 g))	Sirius-Red positive areas (percentage of staining areas; BDL alone 8.69) ([1]; BDL 4 weeks + 1 g/l in drinking water)	liver collagen 1a1 mRNA ([1]; BDL model)	liver fibrosis (Sirius Red collagen) ([1]; BDL model)	collagen build-up in sham mice ([1]; sham operated + 1 g/l for 4 weeks)	liver weight ([1]; sham operated + DPIM for 4 weeks (sham 1.50±0.19 g))	cell survival in 0.2% (v/v) DMSO (primary HSCs; 26 h)	cell survival in 0.2% (v/v) DMSO (primary HSCs; over 93 h)
CC(C)n1cc[n+](C(C)C)c1.F[B-](F)(F)F [DPIM, 1,3-diisopropylimidazolium tetrafluoroborate]	1.97 ± 0.44 g	4.33%	reduced the number of proliferative cells	1.65 ± 0.20 g	3.42%	reduced the collagen 1a1 mRNA	displayed its effect	did not induce any significant build-up of collagen	1.56 ± 0.08 g		
1,3,5-tris(4-methyl-imidazolium)-linked cyclophane.3Br [TDBZIM]										survived	remained viable and proliferated to confluency
[Br-].c1ccc(Cn2cc[n+](Cc3ccccc3)c2)cc1 [DBZIM, 1,3-bisbenzylimidazolium bromide]							attenuated fibrosis			survived	most cells died
